Values quoted from earlier work in patent EP0604852A1, “2,4-Substituted 5-(N-substituted-sulfamoyl) benzoylguanidines, as antiarrhythmic agents, inhibitors of the proliferation of cells and inhibitors of sodium-hydrogen exchange” (HOECHST AKTIENGESELLSCHAFT, priority 1992, dated 1994).

System: Rattenherzen
Settings: isolated rat hearts; Eur. Heart J. 9 (Suppl.): 167 (1988)

Structure (SMILES)	künstlich ausgelöstes Kammerflimmern
N=C(N)NC(=O)c1nc(Cl)c(N)nc1N [Amilorid]	völlig unterdrückt
CCN(c1nc(N)c(C(=O)NC(=N)N)nc1Cl)C(C)C [Ethylisopropylamilorid]	Noch potenter als Amilorid
